Numbers after ± are expanded uncertainties.
Assay: mn = molality of the nth substance listed, in mol/kg
Settings: 101 kPa, Liquid; for electrical conductivity: METLER TOLEDO SevenEasyTM conductivity meter

Q: For `CCCC[P+](CCCC)(CCCC)CCCC.[Br-]` [tetrabutylphosphonium bromide] + O, which electrical conductivity (298.15 K, m1 = 0.4996) is on record?
A: 1.61 ± 0.02 S/m

Q: What about the electrical conductivity (298.15 K, m1 = 0.7513) of the same molecule?
A: 1.81 ± 0.02 S/m

Q: What about the electrical conductivity (298.15 K, m1 = 0.9998) of the same molecule?
A: 1.93 ± 0.02 S/m

Q: What about the electrical conductivity (298.15 K, m1 = 1.999) of the same molecule?
A: 1.97 ± 0.02 S/m

Q: And the electrical conductivity (298.15 K, m1 = 2.999)?
A: 1.84 ± 0.02 S/m

Q: And the electrical conductivity (298.15 K, m1 = 4.004)?
A: 1.69 ± 0.02 S/m

Q: What about the electrical conductivity (298.15 K, m1 = 4.994) of the same molecule?
A: 1.54 ± 0.02 S/m

Q: And the electrical conductivity (298.15 K, m1 = 6.002)?
A: 1.43 ± 0.02 S/m

Q: What about the electrical conductivity (298.15 K, m1 = 6.503) of the same molecule?
A: 1.4 ± 0.02 S/m

Q: What about the electrical conductivity (298.15 K, m1 = 7.006) of the same molecule?
A: 1.33 ± 0.02 S/m

Q: And the mass density (298.15 K, m1 = 0.4996)?
A: 1008.5 ± 0.17 kg/m3

Q: What about the viscosity (298.15 K, m1 = 0.4996) of the same molecule?
A: 1.483 ± 0.16 mPa·s

Q: And the mass density (298.15 K, m1 = 0.7513)?
A: 1013.67 ± 0.18 kg/m3

Q: And the viscosity (298.15 K, m1 = 0.7513)?
A: 1.871 ± 0.16 mPa·s

Q: And the mass density (298.15 K, m1 = 0.9998)?
A: 1017.95 ± 0.19 kg/m3

Q: And the viscosity (298.15 K, m1 = 0.9998)?
A: 2.246 ± 0.17 mPa·s

Q: What about the mass density (298.15 K, m1 = 1.999) of the same molecule?
A: 1030.09 ± 0.22 kg/m3

Q: And the viscosity (298.15 K, m1 = 1.999)?
A: 3.875 ± 0.18 mPa·s

Q: And the mass density (298.15 K, m1 = 2.999)?
A: 1037.03 ± 0.25 kg/m3

Q: What about the viscosity (298.15 K, m1 = 2.999) of the same molecule?
A: 5.641 ± 0.2 mPa·s

Q: What about the mass density (298.15 K, m1 = 4.004) of the same molecule?
A: 1041.4 ± 0.27 kg/m3

Q: What about the viscosity (298.15 K, m1 = 4.004) of the same molecule?
A: 7.374 ± 0.21 mPa·s

Q: And the mass density (298.15 K, m1 = 4.994)?
A: 1044.28 ± 0.29 kg/m3

Q: What about the viscosity (298.15 K, m1 = 4.994) of the same molecule?
A: 9.03 ± 0.23 mPa·s

Q: And the mass density (298.15 K, m1 = 6.002)?
A: 1046.66 ± 0.31 kg/m3

Q: And the viscosity (298.15 K, m1 = 6.002)?
A: 10.65 ± 0.25 mPa·s

Q: What about the mass density (298.15 K, m1 = 6.503) of the same molecule?
A: 1047.29 ± 0.31 kg/m3

Q: What about the viscosity (298.15 K, m1 = 6.503) of the same molecule?
A: 11.46 ± 0.27 mPa·s

Q: What about the mass density (298.15 K, m1 = 7.006) of the same molecule?
A: 1048.18 ± 0.32 kg/m3

Q: What about the viscosity (298.15 K, m1 = 7.006) of the same molecule?
A: 12.29 ± 0.28 mPa·s

Q: And the mass density (298.15 K, m1 = 8)?
A: 1049.41 ± 0.33 kg/m3

Q: What about the mass density (298.15 K, m1 = 8.996) of the same molecule?
A: 1050.43 ± 0.34 kg/m3

Q: What about the electrical conductivity (303.15 K, m1 = 0.4996) of the same molecule?
A: 1.65 ± 0.02 S/m

Q: And the electrical conductivity (303.15 K, m1 = 0.7513)?
A: 1.89 ± 0.02 S/m

Q: What about the electrical conductivity (303.15 K, m1 = 0.9998) of the same molecule?
A: 2.03 ± 0.02 S/m

Q: And the electrical conductivity (303.15 K, m1 = 1.999)?
A: 2.08 ± 0.02 S/m

Q: What about the electrical conductivity (303.15 K, m1 = 2.999) of the same molecule?
A: 1.95 ± 0.02 S/m

Q: What about the electrical conductivity (303.15 K, m1 = 4.004) of the same molecule?
A: 1.81 ± 0.02 S/m

Q: And the electrical conductivity (303.15 K, m1 = 4.994)?
A: 1.66 ± 0.02 S/m

Q: What about the electrical conductivity (303.15 K, m1 = 6.002) of the same molecule?
A: 1.54 ± 0.02 S/m

Q: And the electrical conductivity (303.15 K, m1 = 6.503)?
A: 1.51 ± 0.02 S/m

Q: And the electrical conductivity (303.15 K, m1 = 7.006)?
A: 1.44 ± 0.02 S/m

Q: And the mass density (303.15 K, m1 = 0.4996)?
A: 1006.58 ± 0.17 kg/m3

Q: And the viscosity (303.15 K, m1 = 0.4996)?
A: 1.282 ± 0.16 mPa·s

Q: What about the mass density (303.15 K, m1 = 0.7513) of the same molecule?
A: 1011.4 ± 0.18 kg/m3

Q: And the viscosity (303.15 K, m1 = 0.7513)?
A: 1.677 ± 0.16 mPa·s

Q: And the mass density (303.15 K, m1 = 0.9998)?
A: 1015.41 ± 0.19 kg/m3

Q: What about the viscosity (303.15 K, m1 = 0.9998) of the same molecule?
A: 1.915 ± 0.16 mPa·s

Q: What about the mass density (303.15 K, m1 = 1.999) of the same molecule?
A: 1026.84 ± 0.22 kg/m3

Q: And the viscosity (303.15 K, m1 = 1.999)?
A: 3.1 ± 0.17 mPa·s

Q: What about the mass density (303.15 K, m1 = 2.999) of the same molecule?
A: 1033.51 ± 0.24 kg/m3

Q: And the viscosity (303.15 K, m1 = 2.999)?
A: 4.589 ± 0.19 mPa·s

Q: What about the mass density (303.15 K, m1 = 4.004) of the same molecule?
A: 1037.76 ± 0.27 kg/m3

Q: And the viscosity (303.15 K, m1 = 4.004)?
A: 6.059 ± 0.2 mPa·s

Q: And the mass density (303.15 K, m1 = 4.994)?
A: 1040.58 ± 0.28 kg/m3

Q: And the viscosity (303.15 K, m1 = 4.994)?
A: 7.403 ± 0.22 mPa·s

Q: What about the mass density (303.15 K, m1 = 6.002) of the same molecule?
A: 1042.92 ± 0.3 kg/m3

Q: What about the viscosity (303.15 K, m1 = 6.002) of the same molecule?
A: 8.71 ± 0.23 mPa·s

Q: And the mass density (303.15 K, m1 = 6.503)?
A: 1043.96 ± 0.31 kg/m3

Q: And the viscosity (303.15 K, m1 = 6.503)?
A: 9.333 ± 0.24 mPa·s

Q: What about the mass density (303.15 K, m1 = 7.006) of the same molecule?
A: 1044.43 ± 0.31 kg/m3

Q: And the viscosity (303.15 K, m1 = 7.006)?
A: 9.946 ± 0.25 mPa·s

Q: And the mass density (303.15 K, m1 = 8)?
A: 1045.66 ± 0.32 kg/m3

Q: And the mass density (303.15 K, m1 = 8.996)?
A: 1046.7 ± 0.33 kg/m3

Q: What about the electrical conductivity (308.15 K, m1 = 0.4996) of the same molecule?
A: 1.72 ± 0.02 S/m

Q: What about the electrical conductivity (308.15 K, m1 = 0.7513) of the same molecule?
A: 1.99 ± 0.02 S/m

Q: And the electrical conductivity (308.15 K, m1 = 0.9998)?
A: 2.15 ± 0.02 S/m

Q: And the electrical conductivity (308.15 K, m1 = 1.999)?
A: 2.251 ± 0.02 S/m

Q: What about the electrical conductivity (308.15 K, m1 = 2.999) of the same molecule?
A: 2.13 ± 0.02 S/m

Q: And the electrical conductivity (308.15 K, m1 = 4.004)?
A: 2 ± 0.02 S/m

Q: What about the electrical conductivity (308.15 K, m1 = 4.994) of the same molecule?
A: 1.85 ± 0.02 S/m

Q: What about the electrical conductivity (308.15 K, m1 = 6.002) of the same molecule?
A: 1.73 ± 0.02 S/m

Q: And the electrical conductivity (308.15 K, m1 = 6.503)?
A: 1.68 ± 0.02 S/m

Q: And the electrical conductivity (308.15 K, m1 = 7.006)?
A: 1.61 ± 0.02 S/m

Q: What about the mass density (308.15 K, m1 = 0.4996) of the same molecule?
A: 1004.44 ± 0.17 kg/m3

Q: And the viscosity (308.15 K, m1 = 0.4996)?
A: 1.142 ± 0.16 mPa·s

Q: What about the mass density (308.15 K, m1 = 0.7513) of the same molecule?
A: 1008.98 ± 0.17 kg/m3

Q: And the viscosity (308.15 K, m1 = 0.7513)?
A: 1.469 ± 0.16 mPa·s

Q: And the mass density (308.15 K, m1 = 0.9998)?
A: 1012.75 ± 0.18 kg/m3

Q: And the viscosity (308.15 K, m1 = 0.9998)?
A: 1.66 ± 0.16 mPa·s

Q: What about the mass density (308.15 K, m1 = 1.999) of the same molecule?
A: 1023.52 ± 0.22 kg/m3

Q: And the viscosity (308.15 K, m1 = 1.999)?
A: 2.61 ± 0.17 mPa·s

Q: What about the mass density (308.15 K, m1 = 2.999) of the same molecule?
A: 1029.96 ± 0.24 kg/m3

Q: And the viscosity (308.15 K, m1 = 2.999)?
A: 3.839 ± 0.18 mPa·s

Q: And the mass density (308.15 K, m1 = 4.004)?
A: 1034.07 ± 0.26 kg/m3

Q: And the viscosity (308.15 K, m1 = 4.004)?
A: 5.037 ± 0.19 mPa·s

Q: What about the mass density (308.15 K, m1 = 4.994) of the same molecule?
A: 1036.87 ± 0.28 kg/m3

Q: What about the viscosity (308.15 K, m1 = 4.994) of the same molecule?
A: 6.085 ± 0.2 mPa·s

Q: What about the mass density (308.15 K, m1 = 6.002) of the same molecule?
A: 1039.15 ± 0.29 kg/m3

Q: And the viscosity (308.15 K, m1 = 6.002)?
A: 7.101 ± 0.22 mPa·s

Q: And the mass density (308.15 K, m1 = 6.503)?
A: 1039.91 ± 0.3 kg/m3

Q: What about the viscosity (308.15 K, m1 = 6.503) of the same molecule?
A: 7.618 ± 0.22 mPa·s

Q: And the mass density (308.15 K, m1 = 7.006)?
A: 1040.68 ± 0.3 kg/m3

Q: And the viscosity (308.15 K, m1 = 7.006)?
A: 8.17 ± 0.23 mPa·s

Q: And the mass density (308.15 K, m1 = 8)?
A: 1041.87 ± 0.31 kg/m3

Q: What about the mass density (308.15 K, m1 = 8.996) of the same molecule?
A: 1042.93 ± 0.32 kg/m3
